In brackets after ≈: the same amount, converted by molar mass. Like-named read-outs stand apart in the source and are kept apart here.
How the values were obtained:
PrP^C in T98G cells = assay type: cell-based, human; conditions: for EC50: read-out: EC50 (μM) ELISA
T98G cells = assay: cells; assay type: cell-based, human; conditions: Homo sapiens, T98G, read-out: EC50 (μM) Calcein
[1] = tested on: PrP^Sc in dividing ScN2a-cl3 cells; assay type: cell-based, mouse; conditions: dividing ScN2a-cl3 cells
in vitro = conditions: mouse
[2] = tested on: PrP^Sc in ScN2a-cl3 cells; assay type: cell-based, mouse; conditions: Western immunoblots
[3] = Single-dose pharmacokinetics in FVB mice (oral gavage, IV); conditions: single oral dose 10 mg/kg; for Brain/Plasma AUClast Ratio: FVB mice; for AUClast ± SD, Brain / AUClast ± SD, Plasma: two FVB mice
N2a-cl3 cells = conditions: mouse
[4] = read-out: Potency (nM) ELISA (EC50), PrP^Sc ELISA
[5] = read-out: EC50 (nM): Western, ScN2a-cl3 cells
[6] = read-out: Potency (nM) Western (EC50), dividing ScN2a-cl3 cells
[7] = pH 1.2, simulated gastric fluid

Row | SMILES | EC50 ([1]; read-out: EC50 (nM): ELISA) [nM] | EC50 [1, 4] [nM] | CC50 (in vitro) [nM] | EC50 [2, 5] [nM] | EC50 [2, 6] [nM] | EC50 (nM): Calcein (LC50 values from calcein assays) (N2a-cl3 cells) | solubility (physchem; [7]) [µM] | solubility (physchem; pH 7.4, aqueous buffer) [µM] | also measured
1 | O=C(Cc1ccc(Br)cc1)NCc1ccccc1 [IND61769] | – | – | – | – | – | – | – | – | EC50 (PrP^C in T98G cells): 2.33 µM; EC50 (T98G cells): > 10 µM
2 | CN1CCN(c2ccc(Nc3ccnc4cc(Cl)ccc34)cc2)CC1 [IND-0045193] | 1220 | 1220 | > 10000 | 2070 | 2070 | MW: 352.9 EC50 (nM): ELISA: 1220 Calcein: >10,000 Western: 2073 | – | – | Brain/Plasma AUClast Ratio [3]: 4.72; AUClast ± SD, Brain [3]: 7.36 ± 0.78 µM·h; AUClast ± SD, Plasma [3]: 1.56 ± 0.31 µM·h
3 | COCCOc1ccc(-c2ccc(-c3csc(Nc4cccc(C)n4)n3)cc2)cn1 [IND-0116094] | – | – | – | – | – | – | 62.8 (≈ 26.3 µg/mL) | 2.2 (≈ 0.921 µg/mL) | –
4 | O=C(Nc1nc(-c2ccc(-c3ccccc3)cc2)cs1)C1CC1 [IND-0030410] | 317 | 317 | > 10000 | 194 | 194 | MW: 320.4 EC50 (nM): ELISA: 317 Calcein: >10,000 Western: 194 | 17.7 (≈ 5.67 µg/mL) | 12.7 (≈ 4.07 µg/mL) | –
5 | Cc1cccc(Nc2nc(-c3ccc(-c4ccc[n+]([O-])c4)cc3)cs2)n1 [IND-0116097] | – | – | – | – | – | – | 49 (≈ 17.7 µg/mL) | 5.1 (≈ 1.84 µg/mL) | –
6 | COc1ccc(CC(=O)NCc2ccccc2)cc1 [IND6612] | – | – | – | – | – | – | – | – | Potency relative to the bromo analog (IND61769) (PrP^C in T98G cells): equal potency to the bromo analog; EC50 (PrP^C in T98G cells): 3.36 µM; EC50 (T98G cells): > 10 µM
7 | Cc1cccc(Nc2nc(-c3ccc(-c4cc[n+]([O-])cc4)cc3)cs2)n1 [IND-0116092] | – | – | – | – | – | – | 17.6 (≈ 6.34 µg/mL) | 15.2 (≈ 5.48 µg/mL) | –
8 | COc1ccc(C(=O)Nc2ccc(-c3csc(C)n3)cc2)cc1 [IND-0033145] | 412 | 412 | > 10000 | 161 | 161 | MW: 324.4 EC50 (nM): ELISA: 412 Calcein: >10,000 Western: 161 | – | – | –
9 | Cc1[nH]c2ccccc2c1-c1csc(-c2cccnc2)n1 [IND-0024352] | 2270 | 2270 | > 10000 | 1700 | 1700 | MW: 291.4 EC50 (nM): ELISA: 2267 Calcein: >10,000 Western: 1698 | – | – | –
10 | Oc1ccc(/C=C/c2cc(O)cc(O)c2)cc1 [IND-0047971] | 2260 | 2260 | > 10000 | 584 | 584 | MW: 228.2 EC50 (nM): ELISA: 2260 Calcein: >10,000 Western: 584 | – | – | –
11 | CCOc1ccc(NC(=O)c2cc3ccccc3cc2O)cc1 [IND-0031751] | 156 | 156 | > 10000 | 42 | 42 | MW: 307.3 EC50 (nM): ELISA: 156 Calcein: >10,000 Western: 42 | – | – | –
12 | Cn1c(=N)n(CC(=O)c2ccc(Br)cc2)c2ccccc21 [IND-0044723] | 1980 | 1980 | > 10000 | 1450 | 1450 | MW: 344.2 EC50 (nM): ELISA: 1983 Calcein: >10,000 Western: 1453 | – | – | –
13 | COc1ccc(-c2cc(-c3ccc(OC)cc3O)[nH]n2)cc1 [IND-0025807] | 167 | 167 | > 10000 | 95 | 95 | MW: 296.3 EC50 (nM): ELISA: 167 Calcein: >10,000 Western: 95 | – | – | –
14 | CN(C)c1cc(-c2ccc(-c3csc(NC(=O)C4CC4)n3)cc2)ccn1 [IND- 116123] | – | – | – | – | – | – | > 150 | < 0.5 | –
15 | c1ccc2cc(-c3cn4ccsc4n3)ccc2c1 [IND-009413] | 6020 | 6020 | > 10000 | 2490 | 2490 | MW: 250.2 EC50 (nM): ELISA: 6015 Calcein: >10,000 Western: 2490 | – | – | –
16 | COc1ccc(-c2cc(-c3ccc(C)cc3O)[nH]n2)cc1 [IND-0028801] | 245 | 245 | > 10000 | 117 | 117 | MW: 280.3 EC50 (nM): ELISA: 245 Calcein: >10,000 Western: 117 | – | – | –
17 | COc1ccc(-c2nc3cc(NC(=O)c4ccc(OCc5ccccc5)cc4)ccc3o2)cc1 [IND-0114202] | 57 | 57 | > 10000 | 2560 | 2560 | MW: 450.5 EC50 (nM): ELISA: 57 Calcein: >10,000 Western: 2565 | – | – | –
18 | CCc1ccc(-c2cn3cc(C)sc3n2)cc1 [IND-0009416] | 1780 | 1780 | > 10000 | 517 | 517 | MW: 242.3 EC50 (nM): ELISA: 1776 Calcein: >10,000 Western: 517 | – | – | –
19 | CCOc1ccc(C(=O)Nc2ccc3oc(-c4ccc(OC)cc4)nc3c2)cc1 [IND-0114138] | 65 | 65 | > 10000 | 134 | 134 | MW: 388.4 EC50 (nM): ELISA: 65 Calcein: >10,000 Western: 134 | – | – | –
20 | Cc1cccc(Nc2nc(-c3ccc(-c4ccc(N5CCN(C)CC5)nc4)cc3)cs2)n1 [IND-0116103] | – | – | – | – | – | – | 37.1 (≈ 16.4 µg/mL) | 4.4 (≈ 1.95 µg/mL) | –
21 | COc1cc(CNCCO)cc(Br)c1OCc1ccccc1Cl [IND-0046380] | 5080 | 5080 | > 10000 | 2150 | 2150 | MW: 400.7 EC50 (nM): ELISA: 5080 Calcein: >10,000 Western: 2148 | – | – | –
22 | COCCOc1cccc(Nc2nc(-c3ccc(-c4ccccc4)cc3)cs2)n1 [IND-0116102] | – | – | – | – | – | – | 2.1 (≈ 0.847 µg/mL) | 2.7 (≈ 1.09 µg/mL) | –
23 | N#Cc1ccc(/C=C/c2ccc(F)cc2)cc1 [IND-0047979] | 1700 | 1700 | > 10000 | 528 | 528 | MW: 223.3 EC50 (nM): ELISA: 1700 Calcein: >10,000 Western: 528 | – | – | –
24 | CC(=O)c1ccc(N2CCN(Cc3ccccc3)CC2)cc1 [IND-0019136] | 8680 | 8680 | > 10000 | 615 | 615 | MW: 294.4 EC50 (nM): ELISA: 8681 Calcein: >10,000 Western: 615 | – | – | –
25 | Cc1cccc(Nc2nc(-c3ccc(-c4ccc(OC(C)C)nc4)cc3)cs2)n1 [IND-0116091] | – | – | – | – | – | – | 13.1 (≈ 5.27 µg/mL) | 3.2 (≈ 1.29 µg/mL) | –
26 | N#Cc1sc2nc(-c3ccc4c(c3)OCO4)ccc2c1N [IND-0052851] | 962 | 962 | > 10000 | 518 | 518 | MW: 295.3 EC50 (nM): ELISA: 962 Calcein: >10,000 Western: 518 | – | – | Brain/Plasma AUClast Ratio [3]: 2.59; AUClast ± SD, Brain [3]: 2.12 ± 0.93 µM·h; AUClast ± SD, Plasma [3]: 0.82 ± 0.31 µM·h
27 | Cc1cccc(Nc2nc(-c3ccc(-c4ccnc(N5CCN(C)CC5)c4)cc3)cs2)n1 [IND-0116134] | – | – | – | – | – | – | 81.8 (≈ 36.2 µg/mL) | 40.2 (≈ 17.8 µg/mL) | –
28 | Cc1cccc(Nc2nc(-c3ccc(-c4ccc(N(C)C)nc4)cc3)cs2)n1 [IND-0116044] | – | – | – | – | – | – | 77.1 (≈ 29.9 µg/mL) | 14.3 (≈ 5.54 µg/mL) | –
29 | c1cncc(-c2nc(-c3c[nH]c4ccccc34)cs2)c1 [IND-0024350] | 321 | 321 | > 10000 | 828 | 828 | MW: 277.3 EC50 (nM): ELISA: 321 Calcein: >10,000 Western: 828 | – | – | –

— US20140329863A1 (priority 2011, published 2014)
